Test results published in patent US20050209162A1, “Methods for monitoring IL-18” (priority 2003, published 2005).

Tests used:
IL-18 = experiment: Serum IL-18 levels (sandwich IL-18 ELISA) in healthy male subjects treated with oral Compound A for 14 days; type: in vivo, human; details: 900 mg q8 h oral
Method: Compound A was evaluated in a double-blind, randomized, placebo-controlled, oral dose, sequential group study in healthy male subjects. 9 subjects received 900 mg Compound A 14 days. 3 subjects received placebo treatment. Doses were administered three times a day at 8-hour intervals on Days 1 to 13 inclusive, and once in the morning of Day 14. All doses were administered in the fasted state.
Blood samples (1×3.5 mL) were taken by venepuncture or cannulation of a forearm vein(s).
Blood samples were collected into 3.5 mL SST Vacutainer® tubes (Becton Dickinson UK Ltd., Oxford) and, after mixing, stored at ambient temperature for at least 30 min prior to centrifugation. The samples were centrifuged, within 1 hour of collection, at 1500 g for 10 minutes at approximately 4° C. For each sample, the separated serum was transferred into two 5 mL suitably labelled polypropylene tubes (at least 0.6 mL in each tube), and stored within 2 hours of collection, at approximately −70° C. the laboratory for IL-18 assay.
IL-18 was assayed using a sandwich IL-18 ELISA technique (Human IL-18 ELISA Kit, Medical and Biological Laboratories, Nagoya, Japan). Standards, Controls and Samples were incubated in wells coated with an anti-human IL-18 monoclonal antibody. […] The developed color was then measured at an OD of 450 using a 630 nm reference filter.

[1] = Absorption and conversion to Compound B upon oral administration; type: in vivo; details: converted into Compound B
ICE = target: T1, ICE (Homo sapiens, UniProt P29466); experiment: ICE inhibition constant (Ki); type: biochemical
T1 sequence (P29466 120-297 limits assumed): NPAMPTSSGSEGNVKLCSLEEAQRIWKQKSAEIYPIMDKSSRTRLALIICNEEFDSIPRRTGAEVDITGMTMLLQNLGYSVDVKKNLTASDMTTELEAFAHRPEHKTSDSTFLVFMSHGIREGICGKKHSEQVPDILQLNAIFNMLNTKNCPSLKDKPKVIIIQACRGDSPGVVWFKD
T1 sequence (P29466 317-404 limits assumed): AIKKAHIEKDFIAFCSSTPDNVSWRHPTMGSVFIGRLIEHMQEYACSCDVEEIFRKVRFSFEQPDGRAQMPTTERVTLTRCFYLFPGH

absorption upon oral administration [1] | Structure (SMILES) | inhibition of serum IL-18 concentrations (in words) (IL-18; 14-day treatment period) | inhibition at 900 mg (IL-18; Homo sapiens, 336 h, over 14 days of treatment, read-out: inhibition of serum IL-18 median levels) [%] | Type of ICE inhibition (ICE)
rapidly absorbed | CCO[C@@H]1OC(=O)C[C@@H]1NC(=O)[C@@H]1CCCN1C(=O)[C@@H](NC(=O)c1ccc(N)c(Cl)c1)C(C)(C)C [Compound A] | gradual but marked inhibition | ~60 | 
 | CC(C)(C)[C@H](NC(=O)c1ccc(N)c(Cl)c1)C(=O)N1CCC[C@H]1C(=O)N[C@H](C=O)CC(=O)O [Compound B] |  |  | selective and reversible ICE inhibitor
